From patent publication US20220023381A1, “VDAC INHIBITORS FOR TREATING AUTOIMMUNE DISEASES” (NATIONAL INSTITUTE FOR BIOTECHNOLOGY IN THE NEGEV LTD., priority 2018, published 2022)

Columns and labels:
[1] = test system: EndoG−/− MEFs; experiment: Quantification of cytosolic mtDNA (cmtDNA) in EndoG−/− MEFs; format: cell-based, mouse; settings: VBIT-4 (10 μM), real-time PCR
Procedure: MEFs were resuspended in 170 μl digitonin buffer containing 150 mM NaCl, 50 mM HEPES pH 7.4, and 25 μg/ml digitonin (EMD Millipore Corp). The homogenates were incubated on a rotator for 10 min at room temperature, followed by centrifugation at 16,000 g for 25 min at 4° C. A 1:20 dilution of the supernatant (cmtDNA) was used for real-time RT-PCR. The pellet was resuspended in 340 μl lysis buffer containing 5 mM EDTA and proteinase K (Qiagen) and incubated at 55° C. overnight. The digested pellet was diluted with water (1:20 to 1:100) and heated at 95° C. for 20 min to inactivate proteinase K, and the sample was used for real-time PCR. The primers used were as follow (5′-3′): D-loop1 forward (SEQ ID NO:64), and reverse (SEQ ID NO:65); D-loop2 forward (SEQ ID NO:66), and reverse (SEQ ID NO:67); D-loop3 forward (SEQ ID NO:68), and reverse (SEQ ID NO:69). The cmtDNA in the supernatant was normalized to the total mitochondrial DNA in the pellet for each sample.

[2] = test system: rat liver mitochondria; experiment: Ca2+ accumulation by isolated mitochondria; settings: purified mitochondria
Procedure: The PTP opening was analyzed following mitochondria swelling. Briefly, freshly isolated mitochondria (0.5 mg/ml) were incubated for 2 min at 24° C. with the indicated concentrations of VBIT-4 for Ca^2+-induced mitochondrial swelling assay. Swelling was initiated by the addition of Ca^2+ (0.1 mM) to the sample cuvette. Absorbance changes at 520 nm were monitored every 16 s for 15 min. Cyclosporine A 10 μM) was used as a positive control. […] Ca^2+ accumulation by freshly isolated rat liver mitochondria (0.5 mg/ml) was assayed with the indicated concentrations of VBIT-4 in the presence of […] CaCl2) (containing [^45Ca^2+]), 220 mM mannitol, 70 mM sucrose, 5 mM succinate, 0.15 mM Pi and 15 mM Tris/HCl, pH 7.2. Ca^2+ uptake was terminated by rapid Millipore filtration (0.45 μm).

[3] = test system: MRL/lpr mice; experiment: MRL/lpr lupus-prone mouse model; format: in vivo
Procedure: All experiments were approved by the ACUC (Animal Care and Use Committee) of the NIH/NHLBI. Lupus-prone female MRL/MpJ-Fas^lpr/J mice (stock #000485, n=10 in each group), used as a model to determine the etiology of systemic lupus erythematosus (SLE), were purchased from The Jackson Laboratory. VIBIT4 was freshly dissolved in DMSO and diluted in water (final pH 5.0). The mice were treated with a daily dose of VBIT-4 (20 mg/kg) or vehicle in drinking water for 5 weeks, beginning at 11 weeks of age until euthanasia at 16 weeks of age. Blood and urine samples were collected when the mice were 16 weeks of age. The body weight of the mice was measured before and after VBIT-4 administration (at 11 and 16 weeks of age).
Proteinuria in fresh urine was measured using creatinine and albumin ELISA kits (Exocell), and mouse albumin was used to determine the proteinuria:creatinine ratio following the manufacturer's instructions.
Circulating mtDNA was isolated from 500 μl of serum using QIAamp Circulating Nucleic Acid Kit (Qiagen) according to the manufacturer's protocol. Briefly, serum samples were incubated with proteinase K and carrier RNA at 55° C. for 30 min in lysis buffer, and the circulating nucleic acids were bound to the silica membrane by applying vacuum pressure. After washing, the eluted samples were used for real-time RT-PCR. Primers of the mtDNA D-loop3 regions were used to quantify serum mtDNA. Anti-dsDNA antibodies were detected at 1:200 serum dilution using an ELISA kit (Alpha Diagnostic).
Kidneys were harvested after perfusion with PBS from MRL/lpr mice. Frozen kidney sections were fixed in cold acetone for 20 min, washed, and blocked for 18 h at 4° C. with 4% BSA in PBS. To detect glomerular deposits, the sections were stained with FITC-conjugated anti-mouse C3 antibody (GC3-90E-Z, Immunology Consultants Laboratory) and Alexa Fluor 594-conjugated anti-Mouse IgG antibody (A-11020, Invitrogen) with Hoechst staining at 1:100 dilution (Life Technologies) for 1 h at room temperature. After washing with PBS, the tissues were mounted, and the slides were observed using a LSM880 laser confocal microscope. The fluorescence intensity score was determined after analyzing random images for each animal in a blinded manner.

[4] = VBIT-4 20 mg/kg daily in drinking water, 5 weeks

`O=C(CC(CO)N1CCN(c2ccc(OC(F)(F)F)cc2)CC1)Nc1ccc(Cl)cc1` (stereo not shown) [VBIT-4, N-(4-chlorophenyl)-4-hydroxy-3-(4-(4-(trifluoromethoxy)phenyl)-piperazin-1-yl)butanamide] was tested, and the cmtDNA [1] was “decreased”, the “Ca2+ uptake” value [2] was “did not prevent” and the “weight of spleen and lymph node” value ([3]; 20 mg/kg daily, 5 weeks, at 16 weeks of age) was “reduced”. For the same molecule, the “renal immune complex deposition” value ([3]; C3 and IgG in kidney glomeruli, compared with vehicle-treated mice) was “significantly diminished”, the “alopecia of face and dorsal” value [3, 4] was “suppressed” and the “development of skin lesions” value [3, 4] was “blocked”. For the same molecule, the mortality [3, 4] was “did not cause any mortality”, the “thickening of the epidermis that accompanies leukocyte infiltration” value [3, 4] was “blocked” and the “change in body weight” value ([3]; VBIT-4 20 mg/kg daily in drinking water, 5 weeks, 11 and 16 weeks of age) was “did not cause any mortality or change in body weight”. The proteinuria ([3]; albumin:creatinine ratio, compared with vehicle-treated mice) was “significantly diminished”, the “serum anti-dsDNA” value ([3]; compared with vehicle-treated mice) was “significantly diminished” and the “cell-free mtDNA” value ([3]; serum, compared with vehicle-treated mice) was “significantly diminished”. The ISG induction ([3]; spleen, real-time PCR, compared with vehicle-treated mice) was “significantly diminished”.
